In patent publication US20160310417A1, “Formulations and Methods For Targeted Ocular Delivery of Therapeutic Agents” (Emory University, priority 2013, published 2016):

What was measured:
IOP in the rabbit eye = assay: Intraocular pressure (IOP) pharmacodynamics in normotensive rabbit, tonometer; assay type: in vivo, New Zealand White rabbits; conditions: for IOP decrease, treated eye: within 1 hour
[1] = Intrastromal delivery of bevacizumab from coated microneedles into rabbit cornea in vivo (ELISA)
[2] = test system: corneal neovascularization; assay: Suture-induced corneal neovascularization model, neovascularization area by image analysis; assay type: in vivo, New Zealand rabbits; conditions: for average neovascularization area lower compared to no treatment group: MN-1bolus: intrastromal 1.1 μg, single microneedle; for reduction of neovascularization compared to untreated eye: SC-high: subconjunctival injection 2500 μg bolus on day 4
Procedure: All animal studies adhered to the ARVO statement for the Use of Animals in Ophthalmic and Vision Research and were approved by the Georgia Institute of Technology Institutional Animal Care and Use Committee (IACUC). Male and female New Zealand rabbits (2.2-2.5 kg) were anesthetized with ketamine (17 mg/kg), xylazine (8.5 mg/kg) and acepromazine (0.5 mg/kg) subcutaneously. Following topical administration of 0.5% proparacaine hydrochloride to minimize discomfort, a single 7.0-gauge silk suture (Ethicon TG140, Blue Ash, Ohio) was placed at midstromal depth 1 mm away from the limbus of the rabbit cornea to generate corneal neovascularization associated with minor traumatic injury. This silk suture was left in the rabbit cornea for the duration of the experiment to induce neovascularization. For each animal, a suture was placed in one eye and the companion eye was left untreated.
During the experiment, the rabbit eye was imaged using a digital camera (Cannon Rebel Tli, Melvile, N.Y.) with macroscopic lens (Cannon MP-E 65 mm) at 3× magnification every two days after placement of the suture. The area of neovascularization was quantified using Adobe Photoshop (Adobe, Jan Jose, Calif.).
Prior to all treatment procedures except for topical delivery, rabbits were anesthetized with ketamine (6 mg/kg), xylazine (4 mg/kg) and acepromazine (0.25 mg/kg) subcutaneously. A reduced dose of anesthesic compared to the suture insertion procedure was used to reduce possible stress to the animals. A single drop of topical proparacaine ophthalmic solution was given as anesthesia. The duration of each study was 18 days and, after the suture insertion at the beginning of the experiment, 4 days were allowed for neovascularization to develop. All the treatments were done on day 4 except as indicated below.
The high-dose group (SC-high) received 2500 μg of bevacuzumab (in 100 μL, i.e., Avastin). The low-dose group (SC-low) received 4.4 μg of bevacuzumab (Avastin was diluted with HBSS to 100 μL).

rabbit cornea = assay: Safety of intrastromal delivery: corneal surface inspection and histology; assay type: in vivo
Excerpt: To identify possible microanatomical changes after intrastromal delivery using microneedles, we conducted a histological safety study using four study groups: (i) The untreated group received no suture and no other treatments. (ii) The suture-only group received a suture at day 0, but no other treatments. (iii). The suture with non-coated microneedles group received a suture on day 0 and four non-coated microneedles inserted at the site of the suture on day 4. […] Animals were sacrificed on days 1, 6, 10 and/or 18 for histological analysis. Suture placement and microneedle application were carried out as described above. High magnification images were taken every day in all study groups to assess possible gross corneal damage. Corneal tissues were fixed in 10% formalin and embedded in paraffin. Hematoxylin-eosin (HE) or periodic acid-Schiff (PAS) staining was performed.
The rabbit corneas with and without microneedle treatment and with and without suture placement were evaluated to assess the safety of microneedle insertion by both magnified inspection of the corneal surface in vivo and histological examination of tissue sections obtained at various times after microneedle treatment Immediately after insertion and removal of the microneedle, a small puncture in the corneal epithelium was evident with a size on the order of 200 μm (data not shown). […]

With brimonidine tartrate the “supraciliary dose for similar pharmacodynamic response, fold less than topical delivery (AUCPD)” value (IOP in the rabbit eye; brimonidine, topical 75 μg vs supraciliary) was 115 fold, the “time for IOP to return to normal” value (IOP in the rabbit eye; single topical drop 75 μg) was ≤ 6 h and the “peak IOP reduction, treated eye” value (IOP in the rabbit eye; single topical drop 75 μg, at 2 hours) was “approximately 4 mmHg”. For the same molecule, the “IOP changes in treated and contralateral eyes” value (IOP in the rabbit eye; supraciliary 0.015 μg in 10 μL) was “no significant IOP changes”, the “persistence of IOP drop” value (IOP in the rabbit eye; supraciliary 0.75 μg in 10 μL) was “about 5 hours” and the “peak IOP drop, treated eye” value (IOP in the rabbit eye; supraciliary 0.75 μg in 10 μL, at 2 hours) was ~3 mmHg. The “persistence of IOP decrease” value (IOP in the rabbit eye; supraciliary 1.5 μg in 10 μL) was “about 9 hours” and the “IOP decrease, treated eye” value (IOP in the rabbit eye; supraciliary 1.5 μg in 10 μL) was ~3.3 mmHg.

In the case of `CS(=O)(=O)NC(=O)CCC/C=C\C[C@H]1C(=O)C[C@@H](O)[C@@H]1/C=C/[C@@H](O)COc1ccccc1` [sulprostone, Sulprostone], the “duration of ocular hypotension, treated eye” value (IOP in the rabbit eye; single topical eye drop 2.5 μg) is reported as “about 8 hours”, the “maximum IOP decrease, treated eye” value (IOP in the rabbit eye; single topical eye drop 2.5 μg, at approximately 2 hours) is reported as ~3.4 mmHg and the “ratio of topical to supraciliary dose for similar pharmacodynamic response (AUCPD comparison)” value (IOP in the rabbit eye; sulprostone, topical 2.5 μg vs supraciliary, Equation (2)) is reported as 101. The “persistence of ocular hypotension, treated eye” value (IOP in the rabbit eye; supraciliary 0.005 μg in 10 μL) was “approximately 6 hours”, the “peak IOP drop, treated eye” value (IOP in the rabbit eye; supraciliary 0.005 μg in 10 μL, at 1 hour) was ~2.8 mmHg and the “persistence of IOP decrease” value (IOP in the rabbit eye; supraciliary 0.025 μg in 10 μL) was “at least 9 hours”. The “IOP decrease, treated eye” value (IOP in the rabbit eye; supraciliary 0.025 μg in 10 μL) was ~3.1 mmHg.

For `FC(F)OC(Cl)C(F)(F)F` (stereo not shown) [isoflurane], the “time for effects on IOP to reverse” value (IOP in the rabbit eye; after inhalation stopped) was 15 to 30 min and the IOP elevation (IOP in the rabbit eye; during 15 min inhalation of escalating dose) was ~5 mmHg.

With `CC(C)OC(=O)CCC/C=C\C[C@@H]1[C@@H](CC[C@@H](O)CCc2ccccc2)[C@H](O)C[C@@H]1O` [latanoprost] the “change in IOP” value (IOP in the rabbit eye; standard human dose of 2.5 μg, rabbit model) was “no change in IOP was observed”.

With Bevacizumab the “coated bevacizumab delivered into the cornea” value ([1]; coated microneedles, 10 dip coats, inserted 60 sec, rabbit cornea in vivo) was 52%, the “amount of bevacizumab delivered per microneedle” value ([1]; microneedles coated with 20 dips) was 1.14 ± 0.11 µg and the “average neovascularization area lower compared to no treatment group” value ([2]; day 4, day 10) was 34%. The “average neovascularization area lower compared to no treatment group” value ([2]; day 4, day 18) was 10%, the “reduction of neovascularization area” value ([2]; MN-1bolusx3: intrastromal 1.1 μg on days 4, 6 and 8 (total 3.3 μg), day 10) was 50% and the “reduction of neovascularization area compared to untreated eyes” value ([2]; MN-4bolus: intrastromal 4.4 μg, four coated microneedles, day 4, day 10) was 65%. The “reduction of neovascularization compared to untreated eyes” value ([2]; MN-hollow: intrastromal 50 μg (2 μL of 25 μg/μL) by hollow microneedle, day 4, day 10) was 74%, the “reduction of neovascularization compared to untreated eye” value ([2]; day 10) was 62% and the “reduction of neovascularization compared to untreated eye” value ([2]; day 18) was 29%. The “effect on neovascularization compared to untreated eyes” value ([2]; SC-low: subconjunctival injection 4.4 μg bolus on day 4) was “no significant effect”, the “reduction of neovascularization compared to untreated eyes” value ([2]; TOP: topical eye drops 3 per day from day 4, total 52,500 μg, day 18) was 6% and the “corneal histology, sutured eyes with versus without microneedle treatment” value (rabbit cornea; 1.1 μg bevacizumab by microneedle four days after suture) was “no notable differences”. For the same molecule, the “corneal surface after treatment with bevacizumab-coated microneedles” value (rabbit cornea; magnified inspection in vivo, daily over 18 days) was “only a microscopic puncture in the corneal epithelium that disappeared within one day and was not associated with any complications”.
